# Values quoted from earlier work as cited in US20030181475A1, “Method of administering buprenorphine to treat depression” (EURO-CELTIQUE S.A., priority 2002, published 2003).
# Test system: depressed patients
# Settings: literature clinical reports
row,Compound,anti-depressive / therapeutic effect in depressed patients
1,COc1ccc2c3c1O[C@H]1[C@@H](O)C=C[C@H]4[C@@H](C2)N(C)CC[C@@]341 [codeine],no anti-depressive effect
2,COc1cccc(C2(O)CCCCC2CN(C)C)c1 (centres unmarked) [tramadol],helped a patient with refractory major depression
3,CCC(=O)C(CC(C)N(C)C)(c1ccccc1)c1ccccc1 (centres unmarked) [methadone],conflicting
4,"β-endorphin (YGGFMTSEKSQTPLVTLFKNAIIKNAYKKGE; Beta-endorphin; UniProt P01189 237-267, looked up) [an endogenous opioid]",no or little observable therapeutic effect
5,CN1CC[C@]23c4c5ccc(O)c4O[C@H]2[C@@H](O)C=C[C@H]3[C@H]1C5 [morphine],conflicting
